Data set [1] is described as follows: Aqueous CIR stability test (LC-MS hydrolytic stability in PBS). It counts as physicochemical. As to conditions: PBS with 1% DMSO; ≈10 μM in 1% DMSO/PBS, room temperature; read-out: t1/2 (hydrolytic stability, intact CIR) (converted). As to the method:
Stability studies were conducted on a Sciex 4000 QTRAP, ESI-LCMS Triple Quadrupole Mass Spectrometer connected to an Agilent 1200 HPLC. All molecules were diluted 100× in PBS from a stable frozen DMSO stock solution reaching a final concentration of ≈10 μM in 1% DMSO/PBS and incubated for different amounts of time at room temperature, prior to LC-MS injection using a gradient of 95:5 to 5:95 (0.1% Formic Acid (aq)) water: ACN over 15 minutes. The integrations of the Absorbance values at 355-365 nm, were determined corresponding to the DNP moiety. The absorbance values corresponding to intact CIR were divided by the sum of intact and hydrolyzed CIR (the imidazole-DNP fragment) to determine fraction CIR intact changing with time. The fraction of intact CIR versus time was plotted on GraphPad Prism 8 using a “Dissociation—One Phase Decay” to extract the half life.
LC-MS analysis of the hydrolytic stability of CIRs 1, 3, and 4 in PBS was performed. The curve fit was done using a monoexponential decay which represents intact CIR plotted as a function of peak integration (corresponding to DNP absorbance) overtime.

Data set [2] deals with monoclonal human anti-DNP antibody (mAb). As to the kind of experiment: BLI covalent labeling kinetics assay on IgG Fc capture probes, mAb. It counts as binding. As for the experimental part:
Kinetic assays to characterize the second order rate constant (kinact/KI) describing the CIR+Ab labeling reaction involved incubating increasing concentrations of CIR 3 or CIR 5 with a fixed concentration (75 nM) of anti-DNP mmAb in solution, for different periods of time. PSMA binding to CIR-Ab complexes increases the total mass associated with the probe surface leading to signal increases (nm shift). CIR 3 (500 nM) and 75 nM of either mmAb or mAb (AcroBiosystems Catalog #DNP-M2) was reacted in 1× Kinetics Buffer (ForteBio) for four hours prior to the experiment. IgG Fc capture (ProG) probes from ForteBio were placed in 1× Kinetics Buffer for 20 minutes prior to the experiment for wetting. The experiment was conducted using an Octet Red96 (ForteBio), where the acquisition rate was set to 5 Hz and the temperature was held at 25° C. The plate shaker setting was 1000 RPM. A volume of 250 μL of each solution was loaded onto a black flat-bottom 96-well plate (Grenier). The experiment began by placing the ProG probes in 1×Kinetics Buffer for four minutes to establish a baseline. Next, the probes were placed into the CIR 3 and anti-DNP antibody reaction mixture to load the covalent complex (CIR-Ab) onto the probe. Next, the probes were placed in a solution of 5 mM DNP-glycine competitor in 1×Kinetics Buffer in order to disrupt any non-covalent or non-specific binding. The baseline was re-established by then placing the probes in 1× Kinetics Buffer for 0.5 minutes. To measure PSMA association, the probes were placed in a solution of 500 nM human PSMA protein in 1× Kinetics Buffer for 10 minutes. The probes were then placed in 1×Kinetics Buffer for 10 minutes to measure dissociation. The raw nm shift signal for the association and dissociation step obtained by the Octet Red96 was first baselined to the beginning of the association step (t=0 second) by subtracting the association signal at t=0 from the measured signal at each time point. The Kd was determined by fitting both the association and dissociation curves using the ‘association then dissociation’ binding model in GraphPad Prism 8. The experiment was repeated once for a total of two replicates.
The specific labelling of an antibody by a CIR occurs via a two-step mechanism. In the first step, the CIR binds to the antibody via its ABD and forms a reversible complex. […] This second order rate constant was determined by monitoring covalent product (CIR-Ab) formation as a function of time via BLI using IgG Fc capture probes (note: a non-specific labeling reaction occurs independent of binding to the DNP binding site with any biological nucleophile and follows second order kinetics without saturation). […]

As for `O=C(O)CC[C@H](NC(=O)N[C@@H](CCCCNC(=O)NCCOCCOCCOCCOCCOCCOCCOCCOC(=O)n1cnc(CCNC(=O)CNc2ccc([N+](=O)[O-])cc2[N+](=O)[O-])c1)C(=O)O)C(=O)O` [CIR 3], the half-life in data set [1] is around 12 h. Further, the “covalent labeling of anti-DNP mAb” value in data set [2] (75 nM mAb, 500 nM CIR 3) is given as “selectively covalently modify mAb albeit with modestly slower kinetics”. Besides, the “Kinact/Kl ^c” value in data set [2] (mAb) was 1730 ± 1040 M⁻¹ s⁻¹. In addition, the “Kinact^c” value in data set [2] (mAb, 75 nM antibody) is reported as 2.0 × 10^−4 ± 0 s^−1. Also, the Ki in data set [2] (mAb, read-out: Kl ^c) is 160 ± 70 nM.

The record behind these values is patent US11827624B2, “Covalent immune recruiter compounds for immune cell recognition and associated uses” (McMaster University, priority 2020, dated 2023).
